ChEMBL document CHEMBL3991943, “Pharmaceutical formulations comprising salts of a protein kinase inhibitor and methods of using same” (2013)
Calls of active or inactive are those of the source. The rule behind the calls is not given here.

Assays:
[1] = target: Mast/stem cell growth factor receptor Kit (Homo sapiens) (UniProt P10721); assay: Inhibition of c-Kit in human PANC1 cells assessed as reduction in Erk phosphorylation at 50 uM; type: cell-based
[2] = tested on: OVCAR-3; assay: Cytostatic activity against human OVCAR3 cells assessed as reduction in cell proliferation; type: functional, cell-based
[3] = tested on: SF-767; assay: Cytotoxicity against human SF-767 cells assessed as cell death at 1 uM after 24 hrs by MTS assay; type: functional, cell-based
[4] = tested on: SF-767; assay: Cytotoxicity against human SF-767 cells assessed as cell death at 1 uM in presence of […] ionizing radiation after 24 hrs by MTS assay; type: functional, cell-based
[5] = tested on: MIA PaCa-2; assay: Antitumor activity against human MIAPaCa2 cells xenografted in athymic nude mouse assessed as reduction in tumor growth at 2.5 to 5 mg/kg, iv administered every 3 days for 28 days; type: functional, organism-based
[6] = tested on: TT; assay: Antitumor activity against human TT cells xenografted in ip dosed athymic nude mouse assessed as reduction in tumor growth administered as qd for 2 weeks; type: functional, organism-based
[7] = tested on: SBcl2; assay: Antitumor activity against human SBcl2 cells xenografted in ip dosed athymic nude mouse assessed as reduction in tumor growth administered as qd for 5 days; type: functional, organism-based
[8] = tested on: MIA PaCa-2; assay: Antitumor activity against human MIAPaCa2 cells xenografted in athymic nude mouse assessed as reduction in tumor growth at 5 mg/kg, iv administered every 7 days for 28 days; type: functional, organism-based
[9] = tested on: OVCAR-3; assay: Antitumor activity against human OVCAR3 cells xenografted in po dosed athymic nude mouse assessed as reduction in tumor growth administered as qd for 28 days; type: functional, organism-based
[10] = tested on: A549; assay: Antitumor activity against human A549 cells xenografted in athymic nude mouse assessed as reduction in tumor growth at 50 mg/kg, po qd administered for 21 days in presence of 30 mg/kg carboplatin; type: functional, organism-based
[11] = tested on: A549; assay: Antitumor activity against human A549 cells xenografted in athymic nude mouse assessed as reduction in tumor growth at 50 mg/kg, po qd administered for 21 days in presence of 30 mg/kg carboplatin/ 20 mg/kg taxol; type: functional, organism-based
[12] = tested on: A549; assay: Suppression of Rad51 expression in human A549 cells at 0.71 to 3.82 uM after 24 hrs by probing blot analysis; type: functional, cell-based
[13] = tested on: HT-29; assay: Suppression of cisplatin-induced Rad51 expression in human HT-29 cells xenografted in in-vivo model by Western blot analysis; type: functional, cell-based
[14] = tested on: HT-29; assay: Suppression of ionizing radiation-induced Rad51 expression in human HT-29 cells pretreated with compound followed by ionizing radiation by Western blot analysis; type: functional, cell-based
[15] = tested on: Canis familiaris; assay: In vivo inhibition of Rad51 expression in po dosed Beagle dog skin administered daily for 28 days measured post last dose by immunohistochemistry staining based assay; type: functional, organism-based; conditions: Canis lupus familiaris

Mast/stem cell growth factor receptor Kit (Homo sapiens), sequence (P10721 whole entry): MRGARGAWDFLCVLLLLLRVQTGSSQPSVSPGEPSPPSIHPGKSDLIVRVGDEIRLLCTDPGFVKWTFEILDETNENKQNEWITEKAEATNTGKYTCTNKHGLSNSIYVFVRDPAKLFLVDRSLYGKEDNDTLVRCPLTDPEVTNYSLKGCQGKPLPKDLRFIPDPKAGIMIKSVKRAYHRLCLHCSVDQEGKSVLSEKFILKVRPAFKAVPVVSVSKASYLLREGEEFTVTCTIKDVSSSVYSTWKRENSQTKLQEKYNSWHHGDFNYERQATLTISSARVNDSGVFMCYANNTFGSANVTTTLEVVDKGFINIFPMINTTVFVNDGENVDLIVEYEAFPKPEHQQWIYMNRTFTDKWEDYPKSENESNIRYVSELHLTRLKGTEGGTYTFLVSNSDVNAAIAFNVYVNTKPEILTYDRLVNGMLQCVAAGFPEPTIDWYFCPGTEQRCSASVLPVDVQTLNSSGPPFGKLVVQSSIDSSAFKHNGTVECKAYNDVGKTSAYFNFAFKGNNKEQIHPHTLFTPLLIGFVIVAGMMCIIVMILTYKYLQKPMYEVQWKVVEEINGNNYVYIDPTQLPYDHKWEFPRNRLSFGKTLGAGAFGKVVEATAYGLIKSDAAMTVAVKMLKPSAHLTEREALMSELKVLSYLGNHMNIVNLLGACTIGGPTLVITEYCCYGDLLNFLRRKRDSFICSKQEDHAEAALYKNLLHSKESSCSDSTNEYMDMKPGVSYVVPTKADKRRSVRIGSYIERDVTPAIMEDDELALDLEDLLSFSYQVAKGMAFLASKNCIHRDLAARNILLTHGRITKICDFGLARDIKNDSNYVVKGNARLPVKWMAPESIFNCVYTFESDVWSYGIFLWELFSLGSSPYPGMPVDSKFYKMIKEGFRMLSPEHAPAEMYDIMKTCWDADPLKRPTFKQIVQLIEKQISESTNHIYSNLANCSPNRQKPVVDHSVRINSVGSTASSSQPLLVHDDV

## COc1cccc(-c2cc(=O)c3ccccc3o2)c1N
[1]
  inhibition: Active

## S=C(NCc1ccc2c(c1)OCO2)N1CCN(c2ncnc3c2oc2ccccc23)CC1
[2]
  Activity: Active
[3]
  Activity: Active
[4]
  Activity: Active
[5]
  Activity: Active
[6]
  Activity: Dose-dependent effect
[7]
  Activity: Active
[8]
  Activity: Active
[9]
  Activity: Dose-dependent effect
[10]
  Activity: Active
[11]
  Activity: Active
[1]
  inhibition: Active
[12]
  Activity: inactive
[13]
  inhibition: Active
[14]
  inhibition: Active
[15]
  inhibition: Dose-dependent effect
